{
  "source": "patent US8518429B2",
  "about": "“Arsenic trioxide medical elution scaffold” (Beijing Amsino Medical Co., Ltd., priority 2007, dated 2013)",
  "origin": "cited, not measured here",
  "key": {"promyelocytic leukemia": {"tested_on": "promyelocytic leukemia", "settings": "used by hematologists in 1970s"}, "VSMCs": {"tested_on": "VSMCs", "settings": "found by Zhuoqi ZHANG et al. and Jianwei SHAO et al."}},
  "data": [
    {"substance": "Arsenic trioxide [As2O3]", "values": [
      {"measurement": "therapeutic effect in promyelocytic leukemia", "setting": "promyelocytic leukemia", "result": "notable therapeutic effect"},
      {"measurement": "effects on VSMCs", "setting": "VSMCs", "result": "anti-proliferation, apoptosis promotion and cell cycle arrest"}
    ]}
  ]
}
